Test results from US20140329863A1 (priority 2011, published 2014).
Where two headings read alike, the source gives them in different places.

How the values were obtained:
[1] = system: PrP^Sc in dividing ScN2a-cl3 cells; format: cell-based, mouse; design: Dividing ELISA pEC50 (μM) 1st Expt. / Dividing ELISA pEC50 (μM) 2nd Expt. / Dividing ELISA pEC50 (μM) 3rd Expt. / Dividing ELISA pEC50 (μM) Mean: unit not given here; settings: for Inhibition of Baseline PrP^5c (%) Dividing Cells ELISA: SPC assay
[2] = system: PrP^Sc in nondividing ScN2a-cl3 cells; format: cell-based, mouse; settings: for Inhibition of Baseline PrP^5c (%) Non-dividing Cells ELISA: SPC assay, nondividing cells
[3] = Table 29, 2-AMT analogs tested for potency, usually n = 3 or more
[4] = read-out: Potency (μM) ELISA (EC50), FDA-approved drugs, ScN2a-c13 assay, dividing cells
[5] = FDA-approved drugs, ScN2a-c13 assay, dividing cells, read-out: Potency (μM) ELISA (EC50)

Molecule: COc1ccc2[nH]c3c(OC)ncnc3c2c1 [IND-22103]
- Inhibition of Baseline PrP^5c (%) Dividing Cells ELISA ([1]; dividing cells): 81%
- Inhibition of Baseline PrP^5c (%) Non-dividing Cells ELISA [2]: 37%

Molecule: Enoxaparin
- Potency Cell Viability, mg/L (N2a-cl3 cells): >10 (mg/L)

Molecule: CC(=O)c1ccc(N2CCN(CC(C)CCC=C(C)C)CC2)cc1 (centres unmarked) [IND-18721]
- Inhibition of Baseline PrP^5c (%) Dividing Cells ELISA ([1]; dividing cells): 78%
- Inhibition of Baseline PrP^5c (%) Non-dividing Cells ELISA [2]: 55%
- Non-dividing Cells V (cell viability percentages) (N2a-cl3 cells): 10%

Molecule: Clc1ccc(N2CCN(C3CCSC3)CC2)cc1 (centres unmarked) [IND-19847]
- Inhibition of Baseline PrP^5c (%) Dividing Cells ELISA ([1]; dividing cells): 42%
- Inhibition of Baseline PrP^5c (%) Non-dividing Cells ELISA [2]: 51%
- Non-dividing Cells V (cell viability percentages) (N2a-cl3 cells): 3%

Molecule: CC(=O)c1ccc(N2CCN(Cc3ccc(F)cc3F)CC2)cc1 [IND-18785]
- Inhibition of Baseline PrP^5c (%) Dividing Cells ELISA ([1]; dividing cells): 85%
- Inhibition of Baseline PrP^5c (%) Non-dividing Cells ELISA [2]: 30%
- Dividing Cells V (cell viability percentages) (N2a-cl3 cells): 30%
- Non-dividing Cells V (cell viability percentages) (N2a-cl3 cells): 20%

Molecule: COc1cc(CN2CCN(c3cccc(C)c3C)CC2)cc(Br)c1O [IND-15461]
- Inhibition of Baseline PrP^5c (%) Dividing Cells ELISA ([1]; dividing cells): 22%
- Inhibition of Baseline PrP^5c (%) Non-dividing Cells ELISA [2]: 48%
- Non-dividing Cells V (cell viability percentages) (N2a-cl3 cells): 3%

Molecule: COc1ccc(-c2csc(Nc3cnccn3)n2)cc1OC [IND82, [4-(3,4-Dimethoxy-phenyl)-thiazol-2-yl]-pyrazin-2-yl-amine]
- EC50 ([1]; AMT analogs tested for potency): 15.6 µM
- EC50 [1, 3]: 15.6 µM

Molecule: Cc1ccc2c(c1)c1c(n2CC(O)CO)C(=O)CCC1 (centres unmarked) [IND-15474]
- Inhibition of Baseline PrP^5c (%) Dividing Cells ELISA ([1]; dividing cells): 14%
- Inhibition of Baseline PrP^5c (%) Non-dividing Cells ELISA [2]: 39%
- Dividing Cells V (cell viability percentages) (N2a-cl3 cells): 11%
- Non-dividing Cells V (cell viability percentages) (N2a-cl3 cells): 9%

Molecule: Nc1c(/N=N/c2ccc(-c3ccc(/N=N/c4cc(S(=O)(=O)O)c5ccccc5c4N)cc3)cc2)cc(S(=O)(=O)O)c2ccccc12 [Congo Red]
- EC50 [1, 4]: 0.452 µM
- Potency (μM) Cell Viability (N2a-cl3 cells; mouse): >10 µM

Molecule: Cc1ccc(Nc2nc(-c3ccncc3)cs2)nc1 [IND29, (5-Methyl-pyridin-2-yl)-(4-pyridin-4-yl-thiazol-2-yl)-amine]
- EC50 ([1]; AMT analogs tested for potency): 1.57 µM
- EC50 [1, 3]: 1.57 µM

Molecule: Cc1ccc(Nc2nc(-c3ccc(-c4ccccn4)s3)cs2)nc1 [IND76, (5-Methyl-pyridin-2-yl)-[4-(5-pyridin-2-yl-thiophen-2-yl)-thiazol-2-yl]-amine]
- EC50 ([1]; AMT analogs tested for potency): 1.23 µM
- EC50 [1, 3]: 1.23 µM

Molecule: Nc1c(C(=O)Nc2cc(F)ccc2F)sc2nc(-c3ccncc3)ccc12 [IND-0024575]
- EC50 ([1]; read-out: Antiprion activity EC50, thienopyridine analogs): 3.49 µM

Molecule: c1ccc2cc(Nc3nc(-c4ccncc4)cs3)ncc2c1 [compound 32]
- Dividing ELISA pEC50 (μM) 1st Expt. ([1]; ScN2a-cl3 dividing cells, 1st determination): 6.58
- EC50 ([1]; ScN2a-cl3 dividing cells, 1st determination, read-out: Dividing ELISA EC50 (μM) 1st Expt.): 0.261 µM
- Dividing ELISA pEC50 (μM) 2nd Expt. ([1]; ScN2a-cl3 dividing cells, 2nd determination): 6.56
- EC50 ([1]; ScN2a-cl3 dividing cells, 2nd determination, read-out: Dividing ELISA EC50 (μM) 2nd Expt.): 0.277 µM
- Dividing ELISA pEC50 (μM) 3rd Expt. ([1]; ScN2a-cl3 dividing cells, 3rd determination): 6.42
- EC50 ([1]; ScN2a-cl3 dividing cells, 3rd determination, read-out: Dividing ELISA EC50 (μM) 3rd Expt.): 0.383 µM
- Dividing ELISA pEC50 (μM) Mean ([1]; ScN2a-cl3 dividing cells, mean of three determinations): 6.52
- EC50 ([1]; ScN2a-cl3 dividing cells, mean of three determinations, read-out: Dividing ELISA EC50 (μM) Mean): 0.307 µM
- EC50 ([2]; read-out: Non-Dividing ELISA EC50 (μM) Mean (n = 3), ScN2a-c13 non-dividing cells, mean n = 3): > 32 µM
- EC50 (N2a-cl3 cells; read-out: Dividing Calcein EC50 (μM) Mean (n = 3)): > 32 µM

Molecule: Cc1cccc(Nc2nc(-c3ccncc3)cs2)n1 [IND7, (6-Methyl-pyridin-2-yl)-(4-pyridin-4-yl-thiazol-2-yl)-amine]
- EC50 ([1]; AMT analogs tested for potency): 1 µM
- EC50 [1, 3]: 1 µM

Molecule: CN1C[C@H](C(=O)N[C@]2(C)O[C@@]3(O)[C@@H]4CCCN4C(=O)[C@H](Cc4ccccc4)N3C2=O)C[C@@H]2c3cccc4[nH]cc(c34)C[C@H]21 [Dihydroergotamine]
- EC50 [1, 4]: 6.44 µM
- Potency (μM) Cell Viability (N2a-cl3 cells; mouse): >10 µM

Molecule: O=C(Nc1ccc(Cl)cc1)Nc1ccc(Cl)c(F)c1 [IND-19237]
- Inhibition of Baseline PrP^5c (%) Dividing Cells ELISA ([1]; dividing cells): 25%
- Inhibition of Baseline PrP^5c (%) Non-dividing Cells ELISA [2]: 66%
- Dividing Cells V (cell viability percentages) (N2a-cl3 cells): 2%
- Non-dividing Cells V (cell viability percentages) (N2a-cl3 cells): 26%

Molecule: COc1ccc(CN2CCN(c3ccc(C(C)=O)cc3)CC2)c(C)c1C [IND-17848]
- Inhibition of Baseline PrP^5c (%) Dividing Cells ELISA ([1]; dividing cells): 95%
- Inhibition of Baseline PrP^5c (%) Non-dividing Cells ELISA [2]: 41%
- Dividing Cells V (cell viability percentages) (N2a-cl3 cells): 1%
- Non-dividing Cells V (cell viability percentages) (N2a-cl3 cells): 24%

Molecule: COc1ccc(-c2csc(Nc3cc4ccccc4cn3)n2)cc1 [IND86, Isoquinolin-3-yl-[4-(4-methoxy-phenyl)-thiazol-2-yl]-amine]
- EC50 ([1]; AMT analogs tested for potency): 0.342 µM
- EC50 [1, 3]: 0.342 µM

Molecule: CC(=O)c1ccc(N2CCN(Cc3cccc(Cl)c3)CC2)cc1 [IND-7486]
- Inhibition of Baseline PrP^5c (%) Dividing Cells ELISA ([1]; dividing cells): 84%
- Inhibition of Baseline PrP^5c (%) Non-dividing Cells ELISA [2]: 31%
- Dividing Cells V (cell viability percentages) (N2a-cl3 cells): 6%
- Non-dividing Cells V (cell viability percentages) (N2a-cl3 cells): 12%

Molecule: CC(=O)c1ccc(N2CCN(Cc3cccc(Br)c3)CC2)cc1 [IND-7046]
- Inhibition of Baseline PrP^5c (%) Dividing Cells ELISA ([1]; dividing cells): 67%
- Inhibition of Baseline PrP^5c (%) Non-dividing Cells ELISA [2]: 39%
- Dividing Cells V (cell viability percentages) (N2a-cl3 cells): 14%
- Non-dividing Cells V (cell viability percentages) (N2a-cl3 cells): 2%

Molecule: O=C(Nc1ccccc1)Nc1ccc(F)c(Cl)c1 [IND-8314]
- Inhibition of Baseline PrP^5c (%) Dividing Cells ELISA ([1]; dividing cells): 87%
- Inhibition of Baseline PrP^5c (%) Non-dividing Cells ELISA [2]: 56%
- Dividing Cells V (cell viability percentages) (N2a-cl3 cells): 7%
- Non-dividing Cells V (cell viability percentages) (N2a-cl3 cells): 17%

Molecule: CCCCc1oc2ccccc2c1C(=O)c1cc(I)c(OCCN(CC)CC)c(I)c1 [Amiodarone]
- Potency (μM) Cell Viability (N2a-cl3 cells; mouse): >10 µM

Molecule: COc1ccc(-c2csc(Nc3cc(C)ccn3)n2)cc1OC [IND42, [4-(3,4-Dimethoxy-phenyl)-thiazol-2-yl]-(4-methyl-pyridin-2-yl)-amine]
- EC50 ([1]; AMT analogs tested for potency): 1 µM
- EC50 [1, 3]: 1 µM

Molecule: Cc1ccc2[nH]c3c(c2c1)CCCC3NC1CCCCC1 (centres unmarked) [IND-5381]
- Inhibition of Baseline PrP^5c (%) Dividing Cells ELISA ([1]; dividing cells): 27%
- Inhibition of Baseline PrP^5c (%) Non-dividing Cells ELISA [2]: 48%
- Dividing Cells V (cell viability percentages) (N2a-cl3 cells): 12%
- Non-dividing Cells V (cell viability percentages) (N2a-cl3 cells): 16%

Molecule: CC(=O)c1ccc(N2CCN(Cc3c(C)n(C)n(-c4ccccc4)c3=O)CC2)cc1 [IND-19672]
- Inhibition of Baseline PrP^5c (%) Dividing Cells ELISA ([1]; dividing cells): 64%
- Inhibition of Baseline PrP^5c (%) Non-dividing Cells ELISA [2]: 35%

Molecule: CC(=O)c1ccc2c(c1)N(CCCN(C)C)c1ccccc1S2 [Acepromazine]
- EC50 [1, 4]: 6.93 µM
- Potency (μM) Cell Viability (N2a-cl3 cells; mouse): >10 µM

Molecule: Cc1ccnc(Nc2nc(-c3cc(-c4ccc(Cl)cc4)no3)cs2)c1 [IND64, {4-[3-(4-Chloro-phenyl)-isoxazol-5-yl]-thiazol-2-yl}-(4-methyl-pyridin-2-yl)-amine]
- EC50 ([1]; AMT analogs tested for potency): 0.85 µM
- EC50 [1, 3]: 0.85 µM

Molecule: CCOc1ccc(/N=N/c2ccc(N)cc2N)cc1 [Ethoxazine]
- EC50 [1, 5]: 4.76 µM
- Potency (μM) Cell Viability (N2a-cl3 cells): >10 µM

Molecule: CNCCc1c(-c2ccccc2)n(-c2ccccc2)c2ccccc12 [IND-10094]
- Inhibition of Baseline PrP^5c (%) Dividing Cells ELISA ([1]; dividing cells): 81%
- Inhibition of Baseline PrP^5c (%) Non-dividing Cells ELISA [2]: 46%
- Dividing Cells V (cell viability percentages) (N2a-cl3 cells): 19%
- Non-dividing Cells V (cell viability percentages) (N2a-cl3 cells): 21%

Molecule: CN1CCc2cccc3c2[C@H]1Cc1ccc(O)c(O)c1-3 [Apomorphine]
- EC50 [1, 4]: > 10 µM

Molecule: CC(=O)c1ccc(N2CCN(Cc3ccccc3Cl)CC2)cc1 [IND-19130]
- Inhibition of Baseline PrP^5c (%) Dividing Cells ELISA ([1]; dividing cells): 86%
- Inhibition of Baseline PrP^5c (%) Non-dividing Cells ELISA [2]: 41%
- Dividing Cells V (cell viability percentages) (N2a-cl3 cells): 5%
- Non-dividing Cells V (cell viability percentages) (N2a-cl3 cells): 2%

Molecule: COc1ccc(-c2csc(Nc3ccc(C(F)(F)F)cn3)n2)cc1OC [IND43, [4-(3,4-Dimethoxy-phenyl)-thiazol-2-yl]-(5-trifluoromethyl-pyridin-2-yl)-amine]
- EC50 ([1]; AMT analogs tested for potency): 2.53 µM
- EC50 [1, 3]: 2.53 µM

Molecule: COc1ccccc1OCCNCC(O)COc1cccc2[nH]c3ccccc3c12 (centres unmarked) [Carvedilol]
- EC50 [1, 4]: 2.28 µM
- Potency (μM) Cell Viability (N2a-cl3 cells; mouse): 6.096 µM

Molecule: Cc1ccc(Nc2nc(-c3c(-c4ccccc4)noc3C)cs2)nc1 [IND36, [4-(5-Methyl-3-phenyl-isoxazol-4-yl)-thiazol-2-yl]-(5-methyl-pyridin-2-yl)-amine]
- EC50 ([1]; AMT analogs tested for potency): > 32 µM
- EC50 [1, 3]: > 32 µM

Molecule: COc1ccc2cc1Oc1ccc(cc1)C[C@H]1c3cc(c(OC)cc3CCN1C)Oc1c(OC)c(OC)cc3c1[C@H](C2)N(C)CC3 [Tetrandine]
- EC50 [1, 5]: 2.15 µM
- Potency (μM) Cell Viability (N2a-cl3 cells): 5.009 µM

Molecule: COc1ccc(-c2csc(Nc3ccccn3)n2)cc1OC [IND135, [4-(3,4-Dimethoxy-phenyl)-thiazol-2-yl]-pyridin-2-yl-amine]
- EC50 ([1]; AMT analogs tested for potency): 1.23 µM
